# Biological target: T1, CCR3 (Homo sapiens, UniProt P51677)
# T1 sequence (P51677 1-355): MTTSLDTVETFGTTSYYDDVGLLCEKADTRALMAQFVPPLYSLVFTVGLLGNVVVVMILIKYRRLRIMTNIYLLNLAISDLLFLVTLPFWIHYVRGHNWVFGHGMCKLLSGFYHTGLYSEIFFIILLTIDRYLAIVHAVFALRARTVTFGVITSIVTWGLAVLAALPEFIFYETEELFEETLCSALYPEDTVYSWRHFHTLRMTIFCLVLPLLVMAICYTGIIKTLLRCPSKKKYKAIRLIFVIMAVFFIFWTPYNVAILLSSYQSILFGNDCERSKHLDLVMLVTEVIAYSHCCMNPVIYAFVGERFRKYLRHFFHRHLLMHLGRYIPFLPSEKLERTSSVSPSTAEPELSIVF
# Assay: CCR3 receptor binding assay ([125I]-labeled human eotaxin/CCL11 displacement on cells)
# Details: 0.1 nM [125I]-labeled human eotaxin/CCL11, 2×10^5 cells/well, 60 min at room temperature
# Procedure: CCR3 Receptor Binding Assay
# Cells were washed once with PBS and resuspended in a binding buffer (25 mM HEPES pH 7.6, 5 mM MgCl2, 1 mM CaCl2, 0.5% BSA, 0.1% NaN3). […] of cell suspension (2×10^5 cells/well) and 0.1 nM [^125I]-labeled human eotaxin/CCL11 (2000 Ci/mmol specific activity) were mixed in a 96-well U-bottom polypropylene plate, and incubated for 60 min at room temperature for the binding reaction. The cell suspension was then transferred to a filtration plate (#MAFB, Millipore), and washed 3 times with the binding buffer containing 0.5 M NaCl, scintillant added, and the radioactivity was counted on a TopCount (Packard). For the determination of non-specific binding, the cell suspension and [^125I]-labeled human eotaxin/CCL11 were incubated in the presence of 500 nM of unlabeled human eotaxin/CCL11. See, lino et al., “Molecular cloning and functional characterization of cynomolgus monkey (Macaca fascicularis) CC chemokine receptor, CCR3,” Cytokine 2002, 19, 276-286.
row,Ki [µM],SMILES
1,≤ 0.05,CC(=O)N1CCN(S(=O)(=O)c2cc(C#N)ccc2Sc2cc(Cl)cc(Cl)c2)CC1 [Compound 111]
2,> 5,"Cc1ccc(C)c(Sc2ccc([N+](=O)[O-])cc2S(=O)(=O)N2CCN(C(=O)c3ccc(Cl)cc3)CC2)c1 [Compound 173, (4-Chlorophenyl)(4-(2-(2,5-dimethylphenylthio)-5-nitrophenylsulfonyl)-piperazin-1-yl)methanone]"
3,> 5,Cc1ccc(NC(=O)N2CCN(S(=O)(=O)c3cc(C#N)ccc3Oc3cc(C)cc(C)c3)CC2)cc1 [Compound 115]
4,> 5,"CC(C)CC(=O)N1CCN(S(=O)(=O)c2cc([N+](=O)[O-])ccc2Sc2cc(Cl)ccc2Cl)CC1 [Compound 152, 1-(4-(2-(2,5-Dichlorophenylthio)-5-nitrophenylsulfonyl)piperazin-1-yl)-3-methylbutan-1-one]"
5,> 5,"Cc1cc(C)cc(Oc2ccc(C#N)cc2S(=O)(=O)N2CCN(C(=O)c3ccc(C(F)(F)F)cc3)CC2)c1 [Compound 54, 4-(3,5-Dimethylphenoxy)-3-(4-(4-(trifluoromethyl)benzoyl)piperazin-1-ylsulfonyl)benzonitrile]"
6,> 5,"Cc1cc(C)cc(Oc2ccc(C#N)cc2S(=O)(=O)N2CCN(C(=O)C3CCCC3)CC2)c1 [Compound 68, 3-(4-(Cyclopentanecarbonyl)piperazin-1-ylsulfonyl)-4-(3,5-dimethylphenoxy)benzonitrile]"
7,> 5,"Cc1cc(C)cc(Oc2ccc(C#N)cc2S(=O)(=O)N2CCN(S(=O)(=O)c3ccc(C(F)(F)F)cc3)CC2)c1 [Compound 60, 4-(3,5-dimethylphenoxy)-3-(4-(4-(trifluoromethyl)phenylsulfonyl)piperazin-1-ylsulfonyl)benzonitrile]"
8,0.5 to 5,"N#Cc1ccc(Oc2cc(Cl)cc(Cl)c2)c(S(=O)(=O)N2CCN(C(=O)c3cccc(Cl)c3)CC2)c1 [Compound 81, 3-(4-(3-Chlorobenzoyl)piperazin-1-ylsulfonyl)-4-(3,5-dichlorophenoxy)benzonitrile]"
9,> 5,"O=C(c1ccccc1)N1CCN(S(=O)(=O)c2cc([N+](=O)[O-])ccc2Sc2cc(Cl)ccc2Cl)CC1 [Compound 163, (4-(2-(2,5-Dichlorophenylthio)-5-nitrophenylsulfonyl)piperazin-1-yl)(phenyl)methanone]"
10,0.05 to 0.5,N#Cc1ccc(Oc2cc(Cl)cc(Cl)c2)c(S(=O)(=O)N2CCN(C(=O)N3CCOCC3)CC2)c1 [Compound 134]
11,> 5,"O=C(c1ccc(Cl)cc1)N1CCN(S(=O)(=O)c2cc([N+](=O)[O-])ccc2Sc2cc(Cl)ccc2Cl)CC1 [Compound 164, (4-Chlorophenyl)(4-(2-(2,5-dichlorophenylthio)-5-nitrophenylsulfonyl)-piperazin-1-yl)methanone]"
12,> 5,N#Cc1ccc(Oc2cc(Cl)cc(Cl)c2)c(S(=O)(=O)N2CCN(C(=O)c3cc4ccccc4o3)CC2)c1 [Compound 129]
13,> 5,Cc1cc(C)cc(Oc2ccc(C#N)cc2S(=O)(=O)N2CCN(C(=S)N(C)C)CC2)c1 [Compound 121]
14,> 5,N#Cc1ccc(Sc2cc(Cl)cc(Cl)c2)c(S(=O)(=O)N2CCN(C(=O)c3cccc(F)c3)CC2)c1 [Compound 113]
15,> 5,"O=C(C1CCC1)N1CCN(S(=O)(=O)c2cc([N+](=O)[O-])ccc2Sc2cc(Cl)ccc2Cl)CC1 [Compound 161, Cyclobutyl(4-(2-(2,5-dichlorophenylthio)-5-nitrophenylsulfonyl)piperazin-1-yl)methanone]"
16,> 5,N#Cc1ccc(Oc2cc(Cl)cc(Cl)c2)c(S(=O)(=O)N2CCN(C(=O)c3cc4ccccc4s3)CC2)c1 [Compound 131]
17,> 5,"O=C(C1CCCCC1)N1CCN(S(=O)(=O)c2cc([N+](=O)[O-])ccc2Sc2cc(Cl)ccc2Cl)CC1 [Compound 162, Cyclohexyl(4-(2-(2,5-dichlorophenylthio)-5-nitrophenylsulfonyl)piperazin-1-yl)methanone]"
18,≤ 0.05,N#Cc1ccc(Oc2cc(Cl)cc(Cl)c2)c(S(=O)(=O)N2CCN(C(=S)NCc3ccco3)CC2)c1 [Compound 136]
